{"source": "patent US7576218B2", "about": "“4-phenylpiperdine-pyrazole CCR1 antagonists” (ChemoCentryx, Inc., priority 2005, dated 2009)", "data": [{"target": "T1, CCR1 (Homo sapiens, UniProt P32246)", "T1 sequence (P32246 1-355)": "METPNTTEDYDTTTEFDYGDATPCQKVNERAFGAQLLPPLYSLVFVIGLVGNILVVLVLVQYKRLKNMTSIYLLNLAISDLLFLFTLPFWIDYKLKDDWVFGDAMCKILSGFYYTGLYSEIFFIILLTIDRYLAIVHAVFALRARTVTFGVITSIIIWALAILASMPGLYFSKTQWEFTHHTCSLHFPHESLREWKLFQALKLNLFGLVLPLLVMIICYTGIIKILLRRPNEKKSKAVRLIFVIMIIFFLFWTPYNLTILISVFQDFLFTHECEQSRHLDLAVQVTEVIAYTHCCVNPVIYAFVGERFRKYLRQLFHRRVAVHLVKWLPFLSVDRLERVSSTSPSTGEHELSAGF", "assay": "CCR1 chemotaxis assay or binding assay (inhibition of CCR1 ligand binding / CCR1 mediated migration)", "units": {"IC50": "nM"}, "description": "Cells were grown under 5% CO2/95% air, 100% humidity at 37° C. and subcultured twice weekly at 1:5 (cells were cultured at a density range of 2×10^5 to 2×10^6 cells/mL) and harvested at 1×10^6 cells/mL.\nMonocytes were isolated from human buffy coats using the Miltenyi bead isolation system (Miltenyi, Auburn, Calif.). Briefly, following a Ficoll gradient separation to isolate peripheral blood mononuclear cells, cells were washed with PBS and the red blood cells lysed using standard procedures. Remaining cells were labeled with anti-CD14 antibodies coupled to magnetic beads (Miltenyi Biotech, Auburn, Calif.). Labeled cells were passed through AutoMACS (Miltenyi, Auburn, Calif.) and positive fraction collected.\nCCR1 expressing cells were centrifuged and resuspended in assay buffer (20 mM HEPES pH 7.1, 140 mM NaCl, 1 mM CaCl2, 5 mM MgCl2, and with 0.2% bovine serum albumin) to a concentration of 5×10^6 cells/mL for THP-1 cells and 5×10^5 for monocytes. Binding assays were set up as follows. […] Reactions were aspirated onto GF/B glass filters pre-soaked in 0.3% polyethyleneimine (PEI) solution, on a vacuum cell harvester (Packard Instruments; Meriden, Conn.). Scintillation fluid (40 μl; Microscint 20, Packard Instruments) was added to each well, the plates were sealed and radioactivity measured in a Topcount scintillation counter (Packard Instruments). Control wells containing either diluent only (for total counts) or excess MIP-1α or MIP-1β (1 μg/mL, for non-specific binding) were used to calculate the percent of total inhibition for compound. The computer program Prism from GraphPad, Inc. (San Diego, Calif.) was used to calculate IC50 values.\nChemotaxis assays were performed using 5 ? m pore polycarbonate, polyvinylpyrrolidone-coated filters in 96-well chemotaxis chambers (Neuroprobe; Gaithersburg, Md.) using chemotaxis buffer (Hank's balanced salt solution (HBSS) and 1% FBS). CCR1 chemokine ligands (i.e., MIP-1α, CCL15/Leukotactin; R&D Systems; Minneapolis, Minn.) are use to evaluate compound mediated inhibition of CCR1 mediated migration. Other chemokines (i.e., SDF-1α; R&D Systems; Minneapolis, Minn.) are used as specificity controls. […] The chambers were incubated 1-2 hours at 37° C., and the number of cells in the lower chamber quantified either by direct cell counts in five high powered fields per well or by the CyQuant assay (Molecular Probes), a fluorescent dye method that measures nucleic acid content and microscopic observation.\nEqual numbers of cells were added to each well in the plate. The cells were then incubated with radiolabeled MIP-1α. Unbound ligand was removed by washing the cells, and bound ligand was determined by quantifying radioactive counts. […] Percent inhibition was determined by the equation:\nIn the assay, the amount of compound was varied; while cell number and ligand concentration were held constant.\nTHP-1 myelomonocytic leukemia cells, which resemble monocytes, as wells as freshly isolated monocytes, were used as targets for chemoattraction by CCR1 chemokine ligands (i.e., MIP-1α, CCL15/leukotactin). […] In this assay, the amount of compound was varied; while cell number and chemokine agonist concentrations were held constant. After the chemotaxis chambers were incubated 1-2 hours at 37° C., the responding cells in the lower chamber were quantified by labeling with the CyQuant assay (Molecular Probes), a fluorescent dye method that measures nucleic acid content, and by measuring with a Spectrafluor Plus (Tecan).", "values": [{"smiles": "Cc1c(Cl)c(C(F)(F)F)nn1CC(=O)N1CCC(C#N)(c2ccc(Cl)cc2)CC1", "note": "[Example 1, 1-[2-(4-chloro-5-methyl-3-trifluoromethyl-pyrazol-1-yl)-acetyl]-4-(4-chloro-phenyl)-piperidine-4-carbonitrile]", "IC50": "< 1000"}, {"smiles": "COC(=O)C1(c2ccc(Cl)cc2)CCN(C(=O)Cn2nc(C(F)(F)F)c(Cl)c2C)CC1", "note": "[Example 2, 1-[2-(4-chloro-5-methyl-3-trifluoromethyl-pyrazol-1-yl)-acetyl]-4-(4-chloro-phenyl)-piperidine-4-carboxylic acid methyl ester]", "IC50": "< 1000"}, {"smiles": "Cc1c(Cl)c(-c2ncco2)nn1CC(=O)N1CCC(C#N)(c2ccc(Cl)cc2)CC1", "note": "[Example 3, 1-[2-(4-chloro-5-methyl-3-oxazol-2-yl-pyrazol-1-yl)-acetyl]-4-(4-chloro-phenyl)-piperidine-4-carbonitrile]", "IC50": "< 1000"}, {"smiles": "COc1cc(C2(O)CCN(C(=O)Cn3nc(C(F)(F)F)c(Cl)c3C)CC2)ccc1Cl", "note": "[Example 4, 1-[4-(4-Chloro-3-methoxy-phenyl)-4-hydroxy-piperidin-1-yl]-2-(4-chloro-5-methyl-3-trifluoromethyl-pyrazol-1-yl)-ethanone]", "IC50": "< 1000"}, {"smiles": "COc1cc(C2(O)CCN(C(=O)Cn3nc(-c4ncco4)c(Cl)c3C)CC2)ccc1Cl", "note": "[Example 5, 1-[4-(4-Chloro-3-methoxy-phenyl)-4-hydroxy-piperidin-1-yl]-2-(4-chloro-5-methyl-3-oxazol-2-yl-pyrazol-1-yl)-ethanone]", "IC50": "< 1000"}, {"smiles": "COc1cc(C2(O)CCN(C(=O)COc3ccc(Cl)cc3)CC2)ccc1Cl", "note": "[Example 6, 1-[4-(4-Chloro-3-methoxy-phenyl)-4-hydroxy-piperidin-1-yl]-2-(4-chloro-phenoxy)-ethanone]", "IC50": "< 1000"}, {"smiles": "Cc1c(Cl)c(C(F)(F)F)nn1CC(=O)N1CCC(O)(c2ccccc2)CC1", "note": "[Example 7, 2-(4-Chloro-5-methyl-3-trifluoromethyl-pyrazol-1-yl)-1-(4-hydroxy-4-phenyl-piperidin-1-yl)-ethanone]", "IC50": "1000 to 25000"}, {"smiles": "Cc1c(Cl)c(C(F)(F)F)nn1CC(=O)N1CCC(O)(c2ccc(Cl)cc2)CC1", "note": "[Example 8, 2-(4-Chloro-5-methyl-3-trifluoromethyl-pyrazol-1-yl)-1-(4-hydroxy-4-(4-chloro)-phenyl-piperidin-1-yl)-ethanone]", "IC50": "< 1000"}, {"smiles": "Cc1c(Cl)c(C(F)(F)F)nn1CC(=O)N1CCC(O)(c2ccc(Cl)c(C(F)(F)F)c2)CC1", "note": "[Example 9, 2-(4-Chloro-5-methyl-3-trifluoromethyl-pyrazol-1-yl)-1-(4-hydroxy-4-(4-chloro-3-trifluoromethyl)-phenyl-piperidin-1-yl)-ethanone]", "IC50": "1000 to 25000"}, {"smiles": "Cc1c(Cl)c(C(F)(F)F)nn1CC(=O)N1CCC(O)(c2ccc(Br)cc2)CC1", "note": "[Example 10, 2-(4-Chloro-5-methyl-3-trifluoromethyl-pyrazol-1-yl)-1-(4-hydroxy-4-(4-bromo)-phenyl-piperidin-1-yl)-ethanone]", "IC50": "1000 to 25000"}, {"smiles": "Cc1c(Cl)c(C(F)(F)F)nn1CC(=O)N1CCC(O)(c2cccc(C(F)(F)F)c2)CC1", "note": "[Example 11, 2-(4-Chloro-5-methyl-3-trifluoromethyl-pyrazol-1-yl)-1-(4-hydroxy-4-(3-trifluoromethyl)-phenyl-piperidin-1-yl)-ethanone]", "IC50": "1000 to 25000"}, {"smiles": "Cc1c(Cl)c(C(F)(F)F)nn1CC(=O)N1CCC(C#N)(c2ccccc2)CC1", "note": "[Example 12, 1-[2-(4-chloro-5-methyl-3-trifluoromethyl-pyrazol-1-yl)-acetyl]-4-phenyl-piperidine-4-carbonitrile]", "IC50": "1000 to 25000"}, {"smiles": "CNC(=O)C1(c2ccc(Cl)cc2)CCN(C(=O)Cn2nc(C(F)(F)F)c(Cl)c2C)CC1", "note": "[Example 13, 1-[2-(4-chloro-5-methyl-3-trifluoromethyl-pyrazol-1-yl)-acetyl]-4-(4-chloro-phenyl)-piperidine-4-methylamide]", "IC50": "1000 to 25000"}, {"smiles": "CCN(CC)C(=O)C1(c2ccc(Cl)cc2)CCN(C(=O)Cn2nc(C(F)(F)F)c(Cl)c2C)CC1", "note": "[Example 14, 1-[2-(4-chloro-5-methyl-3-trifluoromethyl-pyrazol-1-yl)-acetyl]-4-(4-chloro-phenyl)-piperidine-4-diethylamide]", "IC50": "1000 to 25000"}, {"smiles": "Cc1c(Cl)c(C(F)(F)F)nn1CC(=O)N1CCC(C(=O)N2CCCC2)(c2ccc(Cl)cc2)CC1", "note": "[Example 15, 2-(4-chloro-5-methyl-3-trifluoromethyl-pyrazol-1-yl)-1-[4-(4-chloro-phenyl)-4-(pyrrolidine-1-carbonyl)-piperidin-1-yl]-ethanone]", "IC50": "1000 to 25000"}, {"smiles": "Cc1c(Cl)c(C(F)(F)F)nn1CC(=O)N1CCC(C(=O)N2CCCCC2)(c2ccc(Cl)cc2)CC1", "note": "[Example 16, 2-(4-chloro-5-methyl-3-trifluoromethyl-pyrazol-1-yl)-1-[4-(4-chloro-phenyl)-4-(piperidine-1-carbonyl)-piperidin-1-yl]-ethanone]", "IC50": "1000 to 25000"}, {"smiles": "Cc1c(Cl)c(C(F)(F)F)nn1CC(=O)N1CCC(C(=O)N2CCNCC2)(c2ccc(Cl)cc2)CC1", "note": "[Example 17, 2-(4-chloro-5-methyl-3-trifluoromethyl-pyrazol-1-yl)-1-[4-(4-chloro-phenyl)-4-(piperazine-1-carbonyl)-piperidin-1-yl]-ethanone]", "IC50": "> 25000"}, {"smiles": "Cc1c(Cl)c(C(F)(F)F)nn1CC(=O)N1CCC(C(=O)N2CCN(C)CC2)(c2ccc(Cl)cc2)CC1", "note": "[Example 18, 2-(4-chloro-5-methyl-3-trifluoromethyl-pyrazol-1-yl)-1-[4-(4-chloro-phenyl)-4-(4-methyl-piperazine-1-carbonyl)-piperidin-1-yl]-ethanone]", "IC50": "> 25000"}, {"smiles": "Cc1c(Cl)c(C(F)(F)F)nn1CC(=O)N1CCC(C(=O)N2CCOCC2)(c2ccc(Cl)cc2)CC1", "note": "[Example 19, 2-(4-chloro-5-methyl-3-trifluoromethyl-pyrazol-1-yl)-1-[4-(4-chloro-phenyl)-4-(4-morpholine-1-carbonyl)-piperidin-1-yl]-ethanone morpholine]", "IC50": "1000 to 25000"}, {"smiles": "Cc1c(Cl)c(C(F)(F)F)nn1CC(=O)N1CCC(c2ccc(Cl)cc2)(c2nnn[nH]2)CC1", "note": "[Example 20, 2-(4-chloro-5-methyl-3-trifluoromethyl-pyrazol-1-yl)-1-[4-(4-chloro-phenyl)-4-(1H-tetrazol-5-yl)-piperidin-1-yl]-ethanone]", "IC50": "1000 to 25000"}, {"smiles": "Cc1c(Cl)c(C(F)(F)F)nn1CC(=O)N1CCC(C(=N)NO)(c2ccc(Cl)cc2)CC1", "note": "[Example 21, 1-[2-(4-chloro-5-methyl-3-trifluoromethyl-pyrazol-1-yl)-acetyl]-4-(4-chloro-phenyl)-N-hydroxy-piperidine-4-carboxamidine]", "IC50": "< 1000"}, {"smiles": "Cc1c(Cl)c(C(F)(F)F)nn1CC(=O)N1CCC(C(N)=O)(c2ccc(Cl)cc2)CC1", "note": "[Example 22, 1-[2-(4-chloro-5-methyl-3-trifluoromethyl-pyrazol-1-yl)-acetyl]-4-(4-chloro-phenyl)-piperidine-4-carboxylic acid amide]", "IC50": "< 1000"}, {"smiles": "Cc1c(Cl)c(C(F)(F)F)nn1CC(=O)N1CCC(CO)(c2ccc(Cl)cc2)CC1", "note": "[Example 23, 2-(4-chloro-5-methyl-3-trifluoromethyl-pyrazol-1-yl)-1-[4-(4-chloro-phenyl)-4-hydroxymethyl-piperidin-1-yl]-ethanone]", "IC50": "1000 to 25000"}, {"smiles": "Cc1c(Cl)c(C(F)(F)F)nn1CC(=O)N1CCC(CN)(c2ccc(Cl)cc2)CC1", "note": "[Example 24, 1-[4-aminomethyl-4-(4-chloro-phenyl)-piperidin-1-yl]-2-(4-chloro-5-methyl-3-trifluoromethyl-pyrazol-1-yl)-ethanone]", "IC50": "1000 to 25000"}, {"smiles": "Cc1c(Cl)c(C(F)(F)F)nn1CC(=O)N1CCC(C(=O)O)(c2ccc(Cl)cc2)CC1", "note": "[Example 25, 1-[2-(4-chloro-5-methyl-3-trifluoromethyl-pyrazol-1-yl)-acetyl]-4-(4-chloro-phenyl)-piperidine-4-carboxylic acid]", "IC50": "> 25000"}, {"smiles": "COc1cc(C2(C#N)CCN(C(=O)Cn3nc(C(F)(F)F)c(Cl)c3C)CC2)ccc1Cl", "note": "[Example 26]", "IC50": "< 1000"}, {"smiles": "CC(=O)C1(c2ccccc2)CCN(C(=O)Cn2nc(C(F)(F)F)c(Cl)c2C)CC1", "note": "[Example 27, 1-(4-Acetyl-4-phenyl-piperidin-1-yl)-2-(4-chloro-5-methyl-3-trifluoromethyl-pyrazol-1-yl)-ethanone]", "IC50": "1000 to 25000"}, {"smiles": "CCC(=O)C1(c2ccccc2)CCN(C(=O)Cn2nc(C(F)(F)F)c(Cl)c2C)CC1", "note": "[Example 28, 1-(4-ethylcarbonyl-4-phenyl-piperidin-1-yl)-2-(4-chloro-5-methyl-3-trifluoromethyl-pyrazol-1-yl)-ethanone]", "IC50": "1000 to 25000"}, {"smiles": "CCCC(=O)C1(c2ccccc2)CCN(C(=O)Cn2nc(C(F)(F)F)c(Cl)c2C)CC1", "note": "[Example 29, 1-(4-propylcarbonyl-4-phenyl-piperidin-1-yl)-2-(4-chloro-5-methyl-3-trifluoromethyl-pyrazol-1-yl)-ethanone]", "IC50": "< 1000"}]}]}
